Results taken from PubChem BioAssay AID179 (DTP/NCI, 2004).
“And” between values parts separate entries of the source, which are not always exact repeats. Equal values may be shown once. The source made the active and inactive calls.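 How the source made its calls: active means compounds giving half or more protection of infected cells from virus-caused growth loss, again on retest; inactive means the rest.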

System: CEM cells HIV-1 protection, formazan growth assay
Assay: NCI AIDS Antiviral Assay
Conditions: for IC50: measured here: growth of uninfected CEM cells
In short: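 Human CEM cells, uninfected and HIV-1-infected, received five drug concentrations, and growth was read by soluble formazan assay. Compounds giving at least 50% protection were retested; reproducible 100% protection defined confirmed active.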

## CC(C)(C)[Si](C)(C)OCC1OC(n2ccc(=O)[nH]c2=O)C(O[Si](C)(C)C(C)(C)C)[C@@]12O[C@H]2C(N)=O (stereo not given in full)
  EC50: > 200 µM
  IC50: 7.76 µM

## O=c1c2ccccc2sc2cccc(NCCCN3CCN(CCCNc4cccc5sc6ccccc6c(=O)c45)CC3)c12
  EC50: > 100 µM
  IC50: > 100 µM

## O=Nc1sc(=N\O)/c(=N/O)sc1NO
  EC50: > 200 µM
  IC50: 32.4 µM

## COc1ccc(C2SCC(=O)N2c2ccc(-c3ccc(-n4c(-c5ccccc5)nc5ccccc5c4=O)cc3)cc2)cc1OC (stereo not given)
  EC50: > 200 µM
  IC50: 18.2 µM

## CC(=O)OC1C(O)C(C)OC(OC2C(OC(=O)C3CCC4C(C3)OC3(CC(OC(=O)/C=C/c5ccccc5)C(C)CO3)C43CO3)OC(C)C(O)C2OC(C)=O)C1O (stereo not given)
  EC50: > 1.55 µM
  IC50: 0.0012 µM

## COc1ccc(C(OCC2OC(N3CN4C(=NC3=O)N(C(=O)C(C)C)C(OC(=O)C(C)C)C4OC(=O)C(C)C)CC2OP(OC)N(C(C)C)C(C)C)(c2ccccc2)c2ccc(OC)cc2)cc1 (stereo not given)
  EC50: > 100 µM
  IC50: > 100 µM

## C/C(=C\CNc1nc(Cl)nc2nc[nH]c12)CO
  EC50: > 200 µM
  IC50: 148 µM

## O=c1cn[nH]c2c(Cl)cccc12
  EC50: > 589 µM
  IC50: 355 µM

## Cc1cc(Cl)ccc1C(=O)c1ccc2ccccc2c1C(=O)O
  EC50: > 550 µM
  IC50: 126 µM

## CCCCCn1cnc2c(=S)nc(N)[nH]c21
  EC50: > 200 µM
  IC50: 195 µM

## O=c1[nH]c(F)nc2c1ncn2C1OC(CO)C(O)C1O (stereo not given)
  EC50: > 200 µM
  IC50: > 200 µM

## CNc1c(Cl)cc(/C=C2\C=Cc3ccccc32)cc1Cl
  EC50: > 17.4 µM
  IC50: 12.9 µM

## COC(=O)C(COC(=O)/C=C/c1ccc(OC(C)=O)c(OC(C)=O)c1)OC(=O)/C=C/c1ccc(OC(C)=O)c(OC(C)=O)c1 (stereo not given)
  EC50: > 200 µM
  IC50: 25.7 µM

## CO/N=C(\C(=O)Nc1cncs1)c1csc(NC(c2ccccc2)(c2ccccc2)c2ccccc2)n1
  EC50: > 200 µM
  IC50: > 200 µM

## CC(=O)c1c(O)c(C)c(O)c2c1OC1=CC(=O)C(C(C)=O)C(=O)C12C (stereo not given)
  EC50: > 200 µM

## O=S1(=O)CC(c2ccccc2)(c2ccccc2)Nc2ccccc21
  EC50: > 200 µM
  IC50: > 100 µM

## Cc1ccc(NC2=CC(=O)C(NO)c3ccccc32)cc1 (stereo not given)
  EC50: > 200 µM
  IC50: 3.89 µM

## CCOC(=O)C(=O)Nc1nc2c(s1)C(=O)c1ccccc1C2=O
  outcome: inactive

## COc1ccc2nc(NC(=O)C(=O)CC(=O)c3ccc(Cl)cc3)sc2c1
  outcome: inactive

## CN1c2ccccc2C2=C(C3=C(CS2)C(=O)CCS3)S1(=O)=O
  EC50: > 38.9 µM
  IC50: > 38.9 µM

## CN(C)CCN=C1Nc2ccccc2C(=O)N2CSCC12 (stereo not given)
  EC50: > 200 µM
  IC50: > 200 µM

## CCN1CCNc2c3cc(OC)ccc3nc3c([N+](=O)[O-])ccc1c23
  EC50: > 200 µM
  IC50: 0.11 µM

## Cc1ccnc(NC(=O)Nc2ccc(C)cc2[N+](=O)[O-])c1
  EC50: > 200 µM
  IC50: > 200 µM

## CCN(CC)CSc1nc2ccccc2[nH]1
  outcome: inactive

## N#[N+]C1=NC2C(=O)NC=NC2=N1 (stereo not given)
  EC50: > 83.2 µM
  IC50: > 83.2 µM

## O=C1/C(=C/c2ccc(O)c(CN3CCCCC3)c2)CCC/C1=C\c1ccc(O)c(CN2CCCCC2)c1
  outcome: inactive

## C[C@@]12CCC[C@H]1[C@@H]1CC=C3C[C@@H](S)CC[C@]3(C)[C@H]1CC2
  EC50: > 200 µM
  IC50: 66.1 µM

## COc1cccc(/C=C2\SC(=S)N(/C=C3\C(=O)Oc4ccccc4C3=O)C2=O)c1O
  EC50: > 200 µM
  IC50: 70.8 µM

## Clc1ccc(C2ON=C(c3ccccc3)N2C23CC4CC(CC(C4)C2)C3)cc1 (stereo not given)
  EC50: > 200 µM
  IC50: > 200 µM

## Cn1c(=O)cc(C=Nc2ccc(N=Nc3ccccc3)cc2)c2ccccc21
  EC50: > 200 µM
  IC50: 1.51 µM

## C1CCN(CCCSSCCCN2CCCCC2)CC1
  EC50: > 200 µM
  IC50: 91.2 µM

## O=C1C(c2ccccc2)=C(c2ccccc2)C(c2ccc(Sc3ccc(C4=C(c5ccccc5)C(=O)C(c5ccccc5)=C4c4ccccc4)cc3)cc2)=C1c1ccccc1
  EC50: > 1.82 µM
  IC50: > 1.82 µM

## CCOC(=O)CCC(NC(=O)C(N)c1ccc([N+](=O)[O-])cc1)C(=O)NC(CCC(=O)OCC)C(=O)OCC (stereo not given)
  EC50: > 200 µM
  IC50: > 200 µM

## O=C(O)CN(CCN(CC(=O)O)CC(=O)O)CC(=O)O
  EC50: > 200 µM
  IC50: > 200 µM

## Nc1ccc2c(O)c(N=Nc3ccc(N=Nc4ccc(S(=O)(=O)O)cc4)cc3)c(S(=O)(=O)O)cc2c1N=Nc1ccc(N=Nc2ccc(S(=O)(=O)O)cc2)cc1
  outcome: active

## C[CH2][Pb]([CH2]C)([CH2]C)[O]C(=O)C(F)(F)F
  EC50: > 200 µM
  IC50: 31.6 µM

## Cc1ccc(N2C(=O)C3C=CC(n4[nH]c(=O)n(Cc5ccccc5)c4=O)CC3C2=O)cc1 (stereo not given)
  EC50: > 417 µM
  IC50: > 417 µM

## NC(N)=N/N=C/c1c(Cl)nc2sccn12
  EC50: > 200 µM
  IC50: 38 µM

## Cc1ccc(NC(c2ccccc2)P(=O)(c2ccccc2)c2ccccc2)cc1 (stereo not given)
  EC50: > 200 µM
  IC50: > 200 µM

## C#CC[N+](C)(CC#C)CC#C
  outcome: inactive

## O=C(CCCCCCCCC(=O)N1C(=O)CC(=O)N(c2cccc(Cl)c2)C1=S)N1C(=O)CC(=O)N(c2cccc(Cl)c2)C1=S
  EC50: > 200 µM
  IC50: 85.1 µM

## CC1CC2C3CCC4=CC(=O)C=CC4(C)C3(F)C(O)CC2(C)C1(O)C(=O)COP(=O)(O)O (stereo not given)
  outcome: inactive

## CC(=O)Nc1ccc(CNc2cc(=O)n(C)c(=O)[nH]2)cc1
  EC50: > 200 µM
  IC50: > 200 µM

## Cc1cccc(N2C(c3ccccc3)c3ccc(C)cc3NS2=O)c1 (stereo not given)
  EC50: > 257 µM
  IC50: 151 µM

## CSc1nc(-c2ccc(C)cc2)c(C#N)c(=O)[nH]1
  outcome: inactive

## S=C(S)N1CCN(c2cccc(Cl)c2)CC1
  EC50: > 200 µM
  IC50: 182 µM

## N=C(c1ccc(-c2cn3cc(C(=N)N4CCCC4)ccc3n2)cc1)N1CCCC1
  EC50: 148 µM
  IC50: > 200 µM

## CNc1ccc(C)cc1S(=O)(=O)c1ccc([N+](=O)[O-])cc1
  EC50: > 200 µM
  IC50: > 200 µM

## NC(=O)c1ccc(N=Nc2c(O)c3ccccc3[nH]c2=O)cc1
  EC50: > 200 µM
  IC50: > 200 µM

## CN1C/C(=C\c2ccccc2[N+](=O)[O-])C(=O)/C(=C/c2ccccc2[N+](=O)[O-])C1
  EC50: > 2 µM
  IC50: 0.166 µM and 0.0871 µM

## c1ccc(-c2csc3n4ccccc4c[n+]23)cc1
  outcome: inactive

## Cc1cc(NS(=O)(=O)c2ccc(Nc3c4ccccc4nc4c(C(=O)Nc5ccc(S(=O)(=O)N=C(N)N)cc5)cccc34)cc2)no1
  EC50: 18.6 µM
  IC50: 53.7 µM

## N#CC(C#N)=C(N)/C(C#N)=C/c1ccc(O)c(O)c1
  EC50: > 200 µM
  IC50: 61.7 µM

## Cn1c2cccc3nnc4cccc(c4c32)n1C
  outcome: inactive

## CCCC(=O)Nc1cc([N+](=O)[O-])c([N+](=O)[O-])cc1OC
  EC50: > 200 µM
  IC50: 10.7 µM

## COC(=O)c1c(C)cccc1/C=C1/Cc2c(C)cccc2C1=O
  EC50: > 200 µM
  IC50: > 200 µM

## O=C(/C(=C/c1ccc(Br)cc1)c1ccccc1)c1ccccc1
  EC50: > 14.5 µM
  IC50: > 14.5 µM

## NNc1[nH]c(=S)[nH]c1C(N)=O
  EC50: > 200 µM
  IC50: > 200 µM

## CCC[CH2][Sn]1([CH2]CCC)[O]CC(Cc2ccccc2)[O]1 (stereo not given)
  EC50: > 17 µM
  IC50: 0.331 µM

## CCC1(CC=C(C)C)Oc2ccccc2-n2cccc2C1=O (stereo not given)
  outcome: active

## O=C1[C@H]2ON(c3ccccc3)C(c3ccccc3)[C@H]2C(=O)N1c1ccc(Cc2ccc(N3C(=O)[C@@H]4ON(c5ccccc5)C(c5ccccc5)[C@@H]4C3=O)cc2)cc1 (stereo not given in full)
  EC50: > 13.2 µM
  IC50: > 13.2 µM
